The record followed here is PubChem BioAssay AID179 (DTP/NCI, 2004).

This test concerns CEM cells HIV-1 protection, formazan growth assay. As to the kind of experiment: NCI AIDS Antiviral Assay. Conditions: for IC50: measured here: growth of uninfected CEM cells. Put shortly: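 Steps: treat uninfected and HIV-1-infected human CEM cells at five drug levels; quantify growth by soluble formazan; retest any compound reaching 50% protection; classify actives from the retest.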

Where “and” joins values, the source holds several entries; their conditions need not be identical. Equal entries are not always repeated. Calls of active or inactive are those of the source.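 How the source made its calls: active means compounds giving half or more protection of infected cells from virus-caused growth loss, again on retest; inactive means the rest.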 Where a SMILES comes first, the peptide text is derived from it.

As for `COC1/C=C/OC2(C)Oc3c(C)c(O)c4c(O)c(c(/C=N/N5C(C)CN(Cc6cccc(O)c6)CC5C)c(O)c4c3C2=O)NC(=O)/C(C)=C\C=C\C(C)C(O)C(C)C(O)C(C)C(OC(C)=O)C1C` (configuration not stated), the EC50 was above 200 µM and the IC50 stood at 6.46 µM. On the same counts, the results for `Clc1c2ccccc2[se][n+]1-c1ccccc1` are above 21.9 µM and 11.2 µM. In the case of `CCOC1NC(=O)NC(=O)C1(C)Cl` (configuration not stated), the EC50 is above 200 µM and the half-maximal inhibitory concentration (IC50) was above 200 µM.

In the case of `Cn1nnnc1SC(F)(F)c1nc2ccccc2o1`, the EC50 was 126 µM and the IC50 is above 200 µM.

On to `C#CCn1c(=O)c2ccccc2n(CC#C)c1=O`, for which the EC50 was above 200 µM and the IC50 was above 200 µM. As for `Cc1ccc(C(=O)Nc2ccc(CP(=O)(O)O)cc2CP(=O)(O)O)cc1NC(=O)Nc1cc(C(=O)Nc2ccc(CP(=O)(O)O)cc2CP(=O)(O)O)ccc1C`, the EC50 was above 200 µM and the IC50 was above 200 µM.

For the molecule `Nc1ccn(C2OC(CO)C(F)C2F)c(=O)n1` (configuration not stated), the EC50 is above 501 µM and the IC50 was above 501 µM. In the case of `COC(=O)/C(C#N)=C(\Nc1ccccc1)N1CCOCC1`, the EC50 is above 200 µM and the IC50 was above 200 µM. As to `CC1(C)[C@@H]2C[C@H]1c1cnc(-c3ccccn3)cc1[C@H]2C(O)[C@@H]1c2cc(-c3ccccn3)ncc2[C@H]2C[C@@H]1C2(C)C` (some centres not stated), the EC50 is above 5.01 µM and the IC50 was 0.295 µM. On the same counts, the results for `CCCCCC=C(c1cc(Br)c(OC)c(C(=O)O)c1)c1cc(Br)c(OC)c(C(=O)O)c1` are above 200 µM and 91.2 µM. For `OC1CC[C@H](Cl)C2=C1[C@@]13C[C@]14OCCC3OC2[C@@H]4Cl` (some centres not stated), in that order: above 427 µM and above 427 µM. On the same counts, the results for `CC(=O)NNc1nc(C)c(C(/C=C/c2ccc(Cl)cc2)=N\N=C(N)N)s1` are above 18.2 µM and above 18.2 µM. For the molecule `Cc1cn([C@@H]2C[C@](C)(CO)N(C)O2)c(=O)[nH]c1=O`, the EC50 was above 200 µM and the concentration for half-maximal inhibition (IC50) was above 200 µM. Turning to `CC(C)CCCC(C)[C@H]1CC[C@H]2[C@@H]3CC[C@H]4C[C@@H](CCC=C(c5cc(Cl)c(OCc6cccc(C(=O)O)c6)c(C(=O)O)c5)c5cc(Cl)c(OCc6cccc(C(=O)O)c6)c(C(=O)O)c5)CC[C@]4(C)[C@H]3CC[C@]12C` (some centres not stated), the half-maximal effective concentration (EC50) is 5.5 µM and 1.78 µM; the IC50 was above 200 µM. Turning to `C#CCCCC(=C)C[C@@H]1OC(=O)[C@H](C)[C@@H]1O`, the EC50 was above 200 µM and the half-maximal inhibitory concentration (IC50) was above 200 µM. `CC(C)CC(NC(=O)CN)C(=O)NC(C)C(=O)NC(C)C(=O)NC(CO)C(=O)NC(C)C(N)=O` (configuration not stated) (H-GLAASA-NH2; configuration not given here): the result was inactive.

Consider `CC(C)(Cc1ccccc1)C(=C=C=C=C(c1ccccc1)C(C)(C)Cc1ccccc1)c1ccccc1`, for which the EC50 was above 46.8 µM and the IC50 was above 46.8 µM.

Take `O=C(/C=C/c1ccc(O)c(O)c1)O[C@@H](C(=O)O)[C@@H](OC(=O)/C=C/c1ccc(O)c(O)c1)C(=O)O`: the EC50 is above 200 µM and the IC50 came out at 17 µM.

As to `COc1cc(C2c3c(ccc4ccccc34)C(=O)C3CCC(=O)N32)cc(OC)c1O` (configuration not stated), the EC50 is above 25.1 µM and the concentration for half-maximal inhibition (IC50) is 1.29 µM. On the same counts, the results for `CCOC(=O)Nc1n[nH]nc1Cl` are above 200 µM and above 200 µM.

Regarding `CCCc1cc(=O)oc2c3c(c4c(c12)OC(C)(C)C(O)C4=O)O[C@@H](C)[C@H](C)[C@@H]3O` (some centres not stated), the EC50 is above 200 µM and the IC50 is 85.1 µM. With `CC(=O)Oc1c2c(c(OC(C)=O)c3c1C(=O)c1ccccc1C3=O)CCC([C@H](C)O)=C2`, the result was inactive. Turning to `COc1cc2c(cc1OC)CC(N=[N+]=[N-])c1cc(OC)c(OC)cc1/C=C\2` (configuration not stated), the EC50 was above 200 µM and the IC50 is 70.8 µM.

As for `Fc1ccc(C2=NOC3COC4C=CC=CC4OCC23)cc1` (configuration not stated), the EC50 is above 120 µM and the IC50 is above 120 µM. Consider `CCO[C@]12C[C@H](OC)[C@@]3(O)CC(C1[C@H]3OCc1ccccc1)C13C4C2[C@H](OC)C1[C@](COC)(CN4CC)[C@H](O)C[C@@H]3OC` (some centres not stated), for which the EC50 was 17 µM and the half-inhibitory concentration (IC50) worked out at 117 µM.

As to `COc1cc(-c2[nH]ncc2CCCC(=O)Nc2ccccc2[N+](=O)[O-])ccc1O`, the result was inactive.

As to `CC(CNC(=O)c1ccccc1)(CNC(=O)c1ccccc1)[N+](=O)[O-]`, the result was inactive. Regarding `Cc1c2cccc-2c(OCCO)cc2c1[nH]c1ccccc12`, the EC50 is above 200 µM and the IC50 amounted to 2.88 µM. On the same counts, the results for `Cc1nnc(N/N=C(/C(=O)C(C#N)c2ccc(Cl)cc2)C(C#N)c2ccc(Cl)cc2)n1N` (configuration not stated) are above 537 µM and 91.2 µM. On the same counts, the results for `CC(=O)OCC1OC(OCCCCCCO)C(OC(C)=O)C(OC(C)=O)C1OC(C)=O` (configuration not stated) are above 200 µM and above 200 µM. On the same counts, the results for `O=C1CC(c2ccccc2)S(=O)c2ccccc2N1` (configuration not stated) are above 200 µM and above 200 µM. In the case of `CC(C)(C)c1cc(C(=O)/C=C/c2ccc(C(=O)O)cc2)cc(C(C)(C)C)c1`, the EC50 was above 15.1 µM and the half-inhibitory concentration (IC50) was determined as 8.32 µM. Turning to `N=c1n(CC(=O)NC23CC4CC(CC(C4)C2)C3)c2ccccc2n1Cc1ccccc1`, the EC50 was above 79.4 µM and the IC50 turned out to be 14.1 µM. On the same counts, the results for `O=C1CSC(=S)N1N1C(=O)CSC1=S` are above 200 µM and above 200 µM.

Turning to `COC(=O)[C@@H]1O[C@]12C(CO[Si](C)(C)C(C)(C)C)OC(n1ccc(=O)[nH]c1=O)C2O[Si](C)(C)C(C)(C)C` (some centres not stated), the EC50 was above 200 µM and the IC50 is 9.77 µM. As to `CC1CC[C@]2(C(=O)O)CCC3(C)C(=CCC4[C@@]5(C)CC[C@H](OS(=O)(=O)c6ccccc6)C(C)(C)C5CC[C@]43C)[C@@H]2[C@H]1C` (some centres not stated), the result was inactive. `Nc1ccc2c(c1)C1Oc3ccccc3CC1CO2` (configuration not stated): the EC50 was above 200 µM and the IC50 came to 110 µM. For `CC(=O)/C(=C/n1c(=S)sc2ccccc21)C(=O)Nc1ccccc1C`, in that order: above 200 µM and 170 µM.

Consider `CC(C)(C)CC(C)(C)SSc1n[nH]c(=S)s1`, for which the EC50 is above 200 µM and the IC50 is 17.4 µM. On the same counts, the results for `Cn1c(=O)c2nc3sc4ccccc4c(=N)n3c2n(C)c1=O` are above 41.7 µM and above 41.7 µM. On the same counts, the results for `N#Cc1c2ccccc2cn1-c1ccc(F)cc1` are above 200 µM and 79.4 µM. Take `CC12OOC(c3ccccc31)c1c2ccc2ccccc12` (configuration not stated): the outcome was inactive. `CC(C)[C@H](NC(=O)OCc1ccccc1)C(=O)N[C@H](/C=C/C(=O)OC(C)(C)C)CO`: the EC50 is above 200 µM and the IC50 was 97.7 µM.

With `NC(CSS(=O)(=O)O)=NCCc1ccccc1`, the EC50 was above 200 µM and the IC50 stood at 110 µM. On the same counts, the results for `C[N+](C)(CCCn1ccnc1[N+](=O)[O-])CCCn1ccnc1[N+](=O)[O-]` are above 200 µM and above 200 µM. On the same counts, the results for `O=c1c2cc(Br)ccc2n(C2OC(CO)C(O)C(O)C2O)c(=S)n1-c1ccccc1` (configuration not stated) are above 52.5 µM and above 52.5 µM. For `CCCCCCC(O)CCCCCCCCCCC(=O)OCC(COC(=O)CCCCCCCCCCC(O)CCCCCC)OC(=O)CCCCCCCCCCC(O)CCCCCC` (configuration not stated), in that order: above 100 µM and above 100 µM. For the molecule `CCOC(=O)C1C(c2ccc(Br)cc2)N(Cc2ccccc2)C(c2ccc(Br)cc2)C(C(=O)OC)S1(=O)=O` (configuration not stated), the EC50 was above 2.19 µM and the 50% inhibitory concentration (IC50) was above 2.19 µM. For the molecule `CC(=O)NC1=N/C(=C/c2cc([N+](=O)[O-])ccc2O)CN1C`, the EC50 is above 200 µM and the concentration for half-maximal inhibition (IC50) is above 200 µM. As to `COP(=O)(OC)C1=c2c(C)noc2=C2C=COC2C1=O` (configuration not stated), the EC50 was above 200 µM and the concentration for half-maximal inhibition (IC50) is above 200 µM. Take `CC(C)(Br)C(=O)N1CCN(C(c2ccccc2)c2ccccc2)CC1`: the EC50 is above 25.1 µM. As for `CC(=O)NC1(NC(C)=O)C2CC(C1Cc1ccccc1)C(C)(C)C2C` (configuration not stated), the EC50 is above 724 µM and the IC50 was above 724 µM. Consider `Cc1ccccc1-c1cc(=O)c2cc(C)c(C)c(C(=O)O)c2o1`, for which the result was inactive.

As for `O=C(CCC[n+]1ccccc1)CC(O)(C(F)(F)F)C(F)(F)F`, the EC50 is above 200 µM and the IC50 was above 200 µM. For `COC1C2C=CC(C2)[C@H]1[N+](=O)[O-]` (some centres not stated), the outcome was inactive. With `O=C1CCC2(c3ccc(Cl)cc3)Nc3ccc(Cl)cc3N12` (configuration not stated), the EC50 was above 16.2 µM and the IC50 is above 16.2 µM. Take `CCCCCCCCCCCCCCCCOC[C@H](COC(c1ccccc1)(c1ccccc1)c1ccccc1)O[P+](=S)OC` (some centres not stated): the EC50 was above 100 µM and the 50% inhibitory concentration (IC50) was 57.5 µM. On the same counts, the results for `O=C(CC1=Nc2nnc(CCCCCCCc3nnc4n3C(=O)C(CC(=O)c3ccc5ccccc5c3)=N4)n2C1=O)c1ccc2ccccc2c1` are above 4.07 µM and above 4.07 µM. For `c1cc2c(c(CC3CO3)c1CC1CO1)OCCOCCOCCOCCO2` (configuration not stated), in that order: above 661 µM and 1.38 µM. In the case of `COc1cc2[nH]c3c(c2cc1OC)CCN[C@]31CC[C@]2(CC3c4c(cc(OC)c(O)c42)CCN3C)C[C@H]1OC` (some centres not stated), the outcome was inactive. Consider `CC(=O)OCCn1c(Cc2ccc([N+](=O)[O-])cc2)nn(C(C)=O)c1=O`, for which the EC50 is above 200 µM and the IC50 is above 200 µM.

As for `N#C/C(=C\NC(=S)C(N)=S)C(=O)c1ccc2ccccc2c1`, the EC50 is above 200 µM and the IC50 came out at 58.9 µM. On the same counts, the results for `C=C1C(=O)SC(=NCc2ccccc2)N1C` are above 204 µM and 132 µM. As to `O=C(CCc1cccc(O)c1)NCCc1cccc(O)c1`, the EC50 was above 200 µM and the IC50 is above 200 µM.

In the case of `O=c1ccc(=Nc2ccc(NNc3ccccc3)cc2)c2c(=O)c3c([N+](=O)[O-])ccc(O)c3c(=O)c1=2`, the EC50 is above 100 µM and the concentration for half-maximal inhibition (IC50) amounted to 17.8 µM. For `CN(C(=O)C1=CCCCCC1)c1ccccc1I`, in that order: above 200 µM and 38.9 µM.

As a reminder, the EC50 is the midpoint of the concentration-response curve. The IC50 is the concentration needed to halve the response being measured. A low value points to inhibition by little substance.
